Reference: US11389456B2, “Compounds and methods for treating oxalate-related diseases” (OxaluRx, Inc., priority 2018, dated 2022)
In brackets after ≈: the same amount, converted by molar mass.

Tests used:
[1] = Protein binding (plasma equilibrium dialysis); assay type: in vitro ADME; settings: 5 hours at 37° C.; for fraction unbound at 5 h, 1 μM: read-out: Protein Binding Fraction Bound (converted)
Experimental: For testing protein binding of stock compounds solubilized in DMSO, spiking solutions of test and reference compounds were prepared. Solution A (0.5 mM) was prepared by adding 10 μL of 10 mM stock solution into 190 μL of DMSO. Solution B (0.02 mM) was prepared by adding 8 μL of Solution A into 192 μL of 0.05 M sodium phosphate buffer. The final DMSO concentration in Solution B was 4%.
To prepare test and reference compounds in plasma, a 96-well plate with 380 μL aliquots of plasma in the wells designed for plasma and buffer, respectively. Twenty μL of Solution B (0.02 mM of test and reference compounds) were spiked into the pre-loaded plasma in the 96-well plate. The final test concentration is 1 μM containing 0.2% DMSO.
For dialysis sample loading a plasma again buffer system was prepared by applying aliquots of 100 μL of blank dialysis buffer to the receiver side of dialysis chambers and then applying aliquots of 100 μL of the plasma spiked with test and reference compounds to the donor side of the dialysis chamber. A 25-μL aliquot of the plasma spiked with test and reference compounds was added into a 96-well sample preparation plate as T″0″ plasma samples. Aliquots were mixed with the same volume of blank buffer (50:50, volume:volume). Samples were quenched with 200 μL of acetonitrile containing internal standard. The dialysis block was covered and a shaken at 60 rpm for 5 hours at 37° C.
After a 5-hour incubation, dialyzed samples were prepared from 25-μL aliquots from both the donor and receiver sides of the dialysis apparatus into new sample preparation plates. The aliquots were mixed with same volume of opposite matrixes. The samples were quenched with 200 μL acetonitrile containing internal standard. All 0-hour and 5-hour samples were vortexed at 600 rpm for 10 min followed by centrifugation at 5594×g for 15 minutes (Thermo Multifuge×3R). Fifty μL of the supernatants were transferred to anew 96-well plate and mixed with 50 μL Milli-Q water. The sample plate was covered and frozen at −20° C. until LC/MS/MS analysis.

[2] = Solubility in aqueous solution (deionized, distilled water); assay type: physicochemical; settings: kinetic from dmso stock, 1% DMSO, read-out: Aqueous Solubility H2O
Experimental: (§1) For testing compound solubility in phosphate buffered saline (PBS), compound stock solutions were prepared at 10 mM in 100% DMSO. For testing in aqueous solution, the phosphate buffer was replaced with deionized, distilled water. Eleven grams Na2HPO4 (FW: 141.96 g/mol) and 3.5 g NaH2PO4.2H2O (FW: 156.03 g/mol) was added to 1 L Milli-Q water and adjusted to a pH to 7.4 with phosphoric acid or sodium hydroxide. For incubation, media were preheated to 37° C. Eight μL aliquots of reference and test compound stock solutions (10 mM) were added into 792 μL of 100 mM phosphate buffer (pH 7.4). The final DMSO concentration was 1%. Sample tubes were shaken for 1 hour at 1000 rpm at room temperature.
(§2) The calibration curve was prepared with 300-μM spiking solution (SS) in MeOH:acetonitrile (4:1). Six μL of 10 mM compound was added in 194 μL MeOH/acetonitrile (4:1). Samples were centrifuged for 10 minutes at 12,000 rpm to precipitate undissolved particles. Supernatants were transferred to a new tube or plate and dilute 10-fold and 100-fold with 100 mM buffer. Samples were prepared for LC-MS/MS analysis by adding 5 μL each sample (undiluted, 10-fold diluted, and 100-fold diluted) and 5 μL of standard curve samples to 95 μL of acetonitrile (containing internal standard).

[3] = Metabolic stability in human liver microsomal preparation; assay type: in vitro ADME; settings: pH 7.4, human liver microsomes, NADPH, 37° C.; for half-life at 1 μM: 0-45 min, read-out: Metabolic Stability t1/2
Experimental: For evaluating the metabolic stability in human liver microsomal preparation, three buffers were prepared. Buffer A had 1.0 L of 0.1 M monobasic potassium phosphate buffer containing 1.0 mM EDTA. Buffer B had 1.0 L of 0.1 M dibasic potassium phosphate buffer containing 1.0 mM EDTA. Buffer C had 0.1 M potassium phosphate buffer, 1.0 mM EDTA, adjusted to a pH 7.4 via titrating 700 mL buffer B with buffer A. Reference compound (ketanserin) and test compounds spiking solutions (500 μM) were prepared by adding 10 μL of 10 mM DMSO stock compound solution into 190 μL acetonitrile. A volume of 1.5 μL 500 μM spiking solution and 18.75 μL 20 mg/mL human liver microsomes were added into 479.75 μL of Buffer C on ice. A stock solution of 6 mM NADPH was prepared by dissolving NADPH into Buffer C.
Wells on an assay plate were iced and filled with 30 μL 1.5-μM spiking solution containing 0.75 mg/mL microsomes solution and designated for different timepoints (0-, 5-, 15-, 30-, 45-min). For the 0-min timepoint, 135 μL acetonitrile containing internal standard were added followed by 15 μL of NADPH stock solution (6 mM). All other plates were preincubated at 37° C. for 5 minutes and 15 μL NADPH stock solution (6 mM) were added to the plates to start the reaction. At 5-min, 15-min, 30-min, and 45-min, 135 μL acetonitrile containing internal standard were added to the wells of corresponding plates, respectively, to stop the reaction. After quenching, the plates were shaken on the vibrator (IKA, MTS 2/4) for 10 min at 600 rpm and then centrifuged at 5594×g for 15 minutes (Thermo Multifuge×3R). Fifty μL supernatant from each well were transported into a 96-well sample plate containing 50 μL of ultra-pure water (Millipore, ZMQS50F01) for LC/MS analysis.

[4] = Solubility in phosphate buffered saline (PBS), pH 7.4; assay type: physicochemical; settings: phosphate buffer (PBS), aqueous buffer, kinetic from dmso stock; phosphate buffered saline pH 7.4, 1% DMSO, 1 hour shaking at room temperature
Experimental: as §1, §2

[5] = molecular target: recombinant full-length human hydroxyacid oxidase 1 (HAO1), the equivalent of hGOX (Homo sapiens (Human), UniProt Q9UJM8); test: In-vitro human glycolate oxidase (hGOX) assay (Amplex red/HRP fluorescence); assay type: biochemical
Experimental: Biological Activity Assay: In-Vitro Human Glycolate Oxidase (hGOX) Assay
The in-vitro glycolate oxidase assay was performed using recombinant full-length human hydroxyacid oxidase 1 (HAO1), the equivalent of hGOX. […] Purified HAO1 was dissolved in assay buffer consisting of 10 mM NaCl, 110 mM KCl, 2 mM MgCl2, 50 mM HEPES (pH 7.4) and 0.01% Triton™ X-100.

[6] = Stability in human plasma; assay type: in vitro ADME; settings: read-out: Plasma Stability T1/2
Experimental: Stability in Human Plasma.
Stock compounds were prepared for testing the stability in human plasma. First, 0.05 M sodium phosphate and 0.07 M NaCl buffer, pH 7.4, were pre-heated. In deionized water, 14.505 g/L Na2HPO 12H2O, 1.483 g/L NaH2PO4.2H2O and 4.095 g/L NaCl were dissolved. The basic solution was titrated with the phosphoric acid to pH 7.40. Frozen plasma was quickly thawed at 37° C. The plasma was centrifuged at 3,000 rpm for 8 minutes to remove clots, then pipetted and pooled as the plasma stock for the experiment. Only plasma within the range of pH 7.4 to pH 8 was used. If higher than pH 8, the plasma was discarded. The initial pH of the plasma was not adjusted to pH 7.4 with acid or by bubbling with carbon dioxide. By using a 5% carbon dioxide incubator and PBS buffer, a pH of 7.4 will be reached after the 4-hour equilibrium dialysis time. Plasma was iced until use.
Spiking solution A with 0.5 mM testing compounds was prepared by adding 10 μL of 10 mM test compounds stock solution to 190 μL DMSO. Spiking solution B with 0.02 mM testing compound was prepared by adding 40 μL of spiking solution A to 960 μL of […] sodium phosphate buffer with 0.5% BSA. The plasma and spiking solution B were prewarmed at 37° C. for 5 minutes. Ten μL of pre-warmed spiking solution B was added into the wells designated for all the time points (5, 15, 30, 45, 60 minutes). For the 0-minute timepoint, 400 μL acetonitrile containing internal standard were added to the wells of 0-minute plate and then 90 μL plasma were added. For the other timepoints, 90 μL of pre-warmed plasma were added into the wells (0, 5, 15, 30, 45, 60 minutes) and the timing was started. At 5, 15, 30, 45, 60 minutes, 400 μL acetonitrile containing internal standard were added to the wells of corresponding plates, respectively, to stop the reaction. After quenching, the plates were shaken on a vibrator (IKA, MTS 2/4) for 10 minutes at 600 rpm and then centrifuged at 5594×g for 15 minutes (Thermo Multifuge×3R). Fifty μL of supernatant was transferred from each well into a 96-well sample plate containing 50 μL ultra-pure water (Millipore, ZMQS50F01) for LC/MS analysis.

Sequence of recombinant full-length human hydroxyacid oxidase 1 (HAO1), the equivalent of hGOX (Q9UJM8 whole entry): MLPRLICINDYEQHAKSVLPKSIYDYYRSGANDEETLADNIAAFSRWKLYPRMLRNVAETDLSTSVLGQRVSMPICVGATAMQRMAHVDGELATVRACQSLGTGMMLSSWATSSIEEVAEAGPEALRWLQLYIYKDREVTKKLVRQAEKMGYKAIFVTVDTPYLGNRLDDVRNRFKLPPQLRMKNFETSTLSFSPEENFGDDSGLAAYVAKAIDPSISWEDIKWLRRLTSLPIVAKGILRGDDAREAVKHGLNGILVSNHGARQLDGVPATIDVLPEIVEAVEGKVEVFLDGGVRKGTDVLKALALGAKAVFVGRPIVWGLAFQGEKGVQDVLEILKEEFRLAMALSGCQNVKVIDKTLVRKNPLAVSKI

SMILES	recovery at 5 h, 1 μM [1] [%]	fraction unbound at 5 h, 1 μM [1]	solubility at 1 h [2] [µM]	CLint scaled at 1 μM [3] [mL/min/kg]	half-life at 1 μM [3] [h]	solubility at 1 h [4] [µM]	IC50 [5] [nM]	half-life at 2 μM [6] [h]
COc1cc(-c2ccc(Oc3[nH]nnc3C(=O)O)cc2)ccc1F [Example I-271, 5-((4′-Fluoro-3′-methoxy-[1,1′-biphenyl]-4-yl)oxy)-1H-1,2,3-triazole-4-carboxylic acid]	110	0.01	90.1 (≈ 29.7 µg/mL)	3.49	8.31	110 (≈ 36.2 µg/mL)	7	2.82
CC(C)Cc1ccc(Oc2[nH]nnc2C(=O)O)cc1 [Example I-299, 5-(4-Isobutylphenoxy)-1H-1,2,3-triazole-4-carboxylic acid]	114	0.002	98.4 (≈ 25.7 µg/mL)	11.3	2.55	104 (≈ 27.1 µg/mL)	33	1.22
Cc1ccc(-c2ccc(Sc3[nH]nnc3C(=O)O)cc2)cc1 [Example I-129, 5-((4′-Methyl-[1,1′-biphenyl]-4-yl)thio)-1H-1,2,3-triazole-4-carboxylic acid]	113		72.7 (≈ 22.6 µg/mL)	21.6	1.34	116 (≈ 36.1 µg/mL)	41	1.44
CC(C)=Cc1cccc(Oc2[nH]nnc2C(=O)O)c1 [Example I-286, 5-(3-(2-Methylprop-1-en-1-yl)phenoxy)-1H-1,2,3-triazole-4-carboxylic acid]	103	0.002	95.8 (≈ 24.8 µg/mL)	15.1	1.92	92.6 (≈ 24 µg/mL)	14	3.45

The next lines start with the values.

recovery at 5 h, 1 μM [1] [%]	fraction unbound at 5 h, 1 μM [1]	solubility at 1 h [2] [µM]	CLint scaled at 1 μM [3] [mL/min/kg]	half-life at 1 μM [3] [h]	solubility at 1 h [4] [µM]	IC50 [5] [nM]	half-life at 2 μM [6] [h]	SMILES
126		106 (≈ 31.5 µg/mL)	10.1	2.87	122 (≈ 36.4 µg/mL)	227	0.755	O=C(O)c1nn[nH]c1Sc1ccc(-c2ccccc2)cc1 [Example I-128, 5-([1,1′-Biphenyl]-4-ylthio)-1H-1,2,3-triazole-4-carboxylic acid]
95.5		112 (≈ 40.4 µg/mL)	1.7	17	116 (≈ 41.9 µg/mL)	8	6.19	CS(=O)(=O)c1ccc(-c2ccc(Oc3[nH]nnc3C(=O)O)cc2)cc1 [Example I-167, 5-((4′-(methylsulfonyl)-[1,1′-biphenyl]-4-yl)oxy)-1H-1,2,3-triazole-4-carboxylic acid]
101	0.008	109 (≈ 37.2 µg/mL)	2.72	10.6	< 0.2	13	5.2	COc1ccc(-c2ccc(Oc3[nH]nnc3C(=O)O)cc2)cc1OC [Example I-270, 5-((3′,4′-Dimethoxy-[1,1′-biphenyl]-4-yl)oxy)-1H-1,2,3-triazole-4-carboxylic acid]
109	0.002	82.5 (≈ 21.4 µg/mL)	13.4	2.16	85.7 (≈ 22.2 µg/mL)	20	1.72	CC(C)=Cc1ccc(Oc2[nH]nnc2C(=O)O)cc1 [Example I-287, 5-(4-(2-Methylprop-1-en-1-yl)phenoxy)-1H-1,2,3-triazole-4-carboxylic acid]
101		108 (≈ 31 µg/mL)	26.4	1.1	96.5 (≈ 27.7 µg/mL)	30	3.11	O=C(O)c1[nH]nnc1Oc1ccc(C2CCCCC2)cc1 [Example I-266, 5-(4-Cyclohexylphenoxy)-1H-1,2,3-triazole-4-carboxylic acid]
